Measured values as given in patent US9174969B2, “Indoline scaffold SHP-2 inhibitors and cancer treatment method” (UNIVERSITY OF SOUTH FLORIDA, priority 2008, dated 2015).

Biological target: Shp2 (Homo sapiens (Human), UniProt Q06124)
Experiment: in vitro phosphotyrosine phosphatase activity (DiFMUP) assay
Assay type: biochemical
Conditions: mean ± spread over n tests
Description: All reagents were purchased from commercial suppliers and used without further purification. Melting points were determined using a Barnstead international melting point apparatus and remain uncorrected. ^1H NMR spectra were recorded on a Varian Mercury 400 MHz spectrometer with CDCl3 or DMSO-d6 as the solvent. ^13C NMR spectra are recorded at 100 MHz. All coupling constants are measured in Hertz (Hz) and the chemical shifts (δH and δC) are quoted in parts per million (ppm) relative to TMS (δ0), which was used as the internal standard. High resolution mass spectroscopy was carried out on an Agilent 6210 LC/MS (ESI-TOF). Microwave reactions were performed in CEM 908005 model and Biotage initiator 8 machines. HPLC analysis was performed using a JASCO HPLC system equipped with a PU-2089 Plus quaternary gradient pump and a UV-2075 Plus UV-VIS detector, using an Alitech Kromasil C-18 column (150×4.6 mm, 5 μm). Thin layer chromatography was performed using silica gel 60 F254 plates (Fisher), with observation under UV when necessary. Anhydrous solvents (acetonitrile, dimethyl formamide, ethanol, isopropanol, methanol and tetrahydrofuran) were used as purchased from Aldrich. HPLC grade solvents (methanol, acetonitrile and water) were purchased from Burdick and Jackson for HPLC and mass analysis.

Chain of Shp2 (Q06124 whole entry): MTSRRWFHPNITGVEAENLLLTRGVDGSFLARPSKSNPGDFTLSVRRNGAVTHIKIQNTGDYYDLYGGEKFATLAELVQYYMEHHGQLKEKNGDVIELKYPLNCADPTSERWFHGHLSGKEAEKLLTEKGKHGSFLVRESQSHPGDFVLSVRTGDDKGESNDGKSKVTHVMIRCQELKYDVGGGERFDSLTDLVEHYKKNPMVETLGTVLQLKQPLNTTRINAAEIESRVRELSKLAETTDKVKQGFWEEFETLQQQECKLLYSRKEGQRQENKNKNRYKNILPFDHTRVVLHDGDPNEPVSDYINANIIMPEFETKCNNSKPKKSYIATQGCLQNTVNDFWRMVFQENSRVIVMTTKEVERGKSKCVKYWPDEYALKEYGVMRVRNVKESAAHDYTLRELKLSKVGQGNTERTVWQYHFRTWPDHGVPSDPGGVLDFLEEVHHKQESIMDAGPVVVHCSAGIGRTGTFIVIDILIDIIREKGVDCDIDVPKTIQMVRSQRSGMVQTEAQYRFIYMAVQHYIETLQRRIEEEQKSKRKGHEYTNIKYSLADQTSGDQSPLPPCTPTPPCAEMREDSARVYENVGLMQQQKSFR

**Q.** How did the IC50 turn out when `O=C(Nc1ccccc1Cl)N1CCc2cc(S(=O)(=O)N3CCN(c4cccc(Cl)c4)CC3)ccc21` [JHE-02-065B, N-(2-Chlorophenyl)-5-(4-(3-chlorophenyl)piperazin-1-ylsulfonyl)indoline-1-carboxamide] was run?
**A.** Its IC50 is 3.2 ± 0.5 µM.

**Q.** How did the IC50 turn out when `O=C(O)C(=O)N1CCc2cc(S(=O)(=O)N3CCN(c4cccc(Cl)c4)CC3)ccc21` [JHE-01-155B, 2-(5-(4-(3-Chlorophenyl)piperazin-1-ylsulfonyl)indolin-1-yl)-2-oxoacetic acid] was run?
**A.** Its IC50 is 4.8 ± 2.8 µM.

**Q.** For `O=C(Nc1ccccc1C(F)(F)F)N1CCc2cc(S(=O)(=O)N3CCN(c4cccc(Cl)c4)CC3)ccc21` [JF040, 5-(4-(3-Chlorophenyl)piperazin-1-ylsulfonyl)-N-(2-(trifluoromethyl)phenyl)indoline-1-carboxamide], which IC50 is on record?
**A.** Its IC50 is 9 ± 1.7 µM.

**Q.** `CC(C)c1ccc(NC(=O)N2CCc3cc(S(=O)(=O)N4CCN(c5cccc(Cl)c5)CC4)ccc32)cc1` [JHE-02-068B, 5-(4-(3-Chlorophenyl)piperazin-1-ylsulfonyl)-N-(4-isopropylphenyl)indoline-1-carboxamide] was tested. Which IC50 did it give?
**A.** Its IC50 is 4.1 ± 1 µM.

**Q.** `CCOC(=O)C(C)NC(=O)N1CCc2cc(S(=O)(=O)N3CCN(c4cccc(Cl)c4)CC3)ccc21` (stereo not drawn) [JHE-02-010B, Ethyl 2-(5-(4-(3-chlorophenyl)piperazin-1-ylsulfonyl)indoline-1-carboxamido)propanoate] was tested. Which IC50 did it give?
**A.** The IC50 was 5.1 ± 2.7 µM.

**Q.** `CC(C)CC(NC(=O)N1CCc2cc(S(=O)(=O)N3CCN(c4cccc(Cl)c4)CC3)ccc21)C(=O)O` (stereo not drawn) [JHE-02-019A, 2-(5-(4-(3-Chlorophenyl)piperazin-1-ylsulfonyl)indoline-1-carboxamido)-4-methylpentanoic acid] was tested. Which IC50 did it give?
**A.** Its IC50 is 4.5 ± 3.5 µM.

**Q.** How did the IC50 turn out when `COc1ccc(N2CCN(S(=O)(=O)c3ccc4c(c3)CCN4C(=O)CCC(=O)O)CC2)cc1` [XW2-038E, 4-(5-(4-(4-Methoxyphenyl)piperazin-1-ylsulfonyl)indolin-1-yl)-4-oxobutanoic acid] was run?
**A.** Its IC50 is 9 ± 5.9 µM.

**Q.** For `O=C(O)CCC(=O)N1CCc2cc(S(=O)(=O)N3CCN(c4cc(C(F)(F)F)cc(C(F)(F)F)c4)CC3)ccc21` [XW2-119, 4-(5-(4-(3,5-Bis(trifluoromethyl)phenyl)piperazin-1-ylsulfonyl)indolin-1-yl)-4-oxobutanoic acid], which IC50 is on record?
**A.** The IC50 was 9.1 ± 1.6 µM.

**Q.** `O=C(Nc1cccc(F)c1)N1CCc2cc(S(=O)(=O)N3CCN(c4cccc(Cl)c4)CC3)ccc21` [JF039, 5-(4-(3-Chlorophenyl)piperazin-1-ylsulfonyl)-N-(3-fluorophenyl)indoline-1-carboxamide] was tested. Which IC50 did it give?
**A.** Its IC50 is 8.1 ± 1.7 µM.

**Q.** How did the IC50 turn out when `O=C(O)C1CC=CCC1C(=O)N1CCc2cc(S(=O)(=O)N3CCN(c4cccc(Cl)c4)CC3)ccc21` (stereo not drawn) [JHE-02-007, 6-(5-(4-(3-Chlorophenyl)piperazin-1-ylsulfonyl)indoline-1-carbonyl)cyclohex-3-enecarboxylic acid] was run?
**A.** The IC50 was 20.3 ± 4.3 µM.

**Q.** Which IC50 does the source give for `CC(C)CC(=O)N1CCc2cc(S(=O)(=O)N3CCN(c4cccc(Cl)c4)CC3)ccc21` [JHE-02-033B, 1-(5-(4-(3-Chlorophenyl)piperazin-1-ylsulfonyl)indolin-1-yl)-3-methylbutan-1-one] here?
**A.** Its IC50 is 20.7 ± 10.8 µM.

**Q.** Which IC50 does the source give for `COCC(=O)N1CCc2cc(S(=O)(=O)N3CCN(c4cccc(Cl)c4)CC3)ccc21` [JHE-01-169, 1-(5-(4-(3-Chlorophenyl)piperazin-1-ylsulfonyl)indolin-1-yl)-2-methoxyethanone] here?
**A.** Its IC50 is 9.6 ± 2.4 µM.

**Q.** With `CC1Cc2cc(S(=O)(=O)N3CCN(c4cccc(Cl)c4)CC3)ccc2N1C(=O)C(F)(F)F` (stereo not drawn) [JHE-02-117, 1-(5-(4-(3-chlorophenyl)piperazin-1-ylsulfonyl)-2-methylindolin-1-yl)-2,2,2-trifluoroethanone] as the compound, how does the IC50 read?
**A.** Its IC50 is 47 ± 17.7 µM.

**Q.** Which IC50 does the source give for `CCC(C)C(NC(=O)N1CCc2cc(S(=O)(=O)N3CCN(c4cccc(Cl)c4)CC3)ccc21)C(=O)O` (stereo not drawn) [JHE-02-038, 2-(5-(4-(3-Chlorophenyl)piperazin-1-ylsulfonyl)indoline-1-carboxamido)-3-methylpentanoic acid] here?
**A.** Its IC50 is 15.5 ± 7.5 µM.

**Q.** Which IC50 does the source give for `O=C(O)C(Cc1ccccc1)NC(=O)N1CCc2cc(S(=O)(=O)N3CCN(c4cccc(Cl)c4)CC3)ccc21` (stereo not drawn) [JHE-02-019B, 2-(5-(4-(3-Chlorophenyl)piperazin-1-ylsulfonyl)indoline-1-carboxamido)-3-phenylpropanoic acid] here?
**A.** The IC50 was 5.4 ± 2.7 µM.
